In ChEMBL document CHEMBL3217682, “Discovery of highly potent antifungal triazoles by structure-based lead fusion” (2011):
Converted amounts (≈) assume the structure as drawn.

Legend:
Type in all cases: functional
[1] = test system: Kluyveromyces marxianus; test: Antifungal activity against Candida kefyr assessed as turbidity after 24 hrs by serial dilution method
[2] = test system: Kluyveromyces marxianus; test: Ratio of fluconazole MIC80 to compound MIC80 for Candida kefyr
[3] = test system: Candida albicans; test: Antifungal activity against Candida albicans assessed as turbidity after 24 hrs by serial dilution method
[4] = test system: Cryptococcus neoformans; test: Antifungal activity against Cryptococcus neoformans assessed as turbidity after 72 hrs by serial dilution method
[5] = test system: Aspergillus fumigatus; test: Antifungal activity against Aspergillus fumigatus assessed as turbidity after 7 days by serial dilution method; conditions: 168 h
[6] = test system: Trichophyton rubrum; test: Antifungal activity against Trichophyton rubrum assessed as turbidity after 24 to 72 hrs by serial dilution method
[7] = test system: Candida parapsilosis; test: Antifungal activity against Candida parapsilosis assessed as turbidity after 24 hrs by serial dilution method; conditions: Lodderomyces parapsilosis
[8] = test system: Candida tropicalis; test: Antifungal activity against Candida tropicalis assessed as turbidity after 24 hrs by serial dilution method
[9] = test system: Candida tropicalis; test: Ratio of fluconazole MIC80 to compound MIC80 for Candida tropicalis
[10] = test system: Candida parapsilosis; test: Ratio of fluconazole MIC80 to compound MIC80 for Candida parapsilosis

OC(CN1CCC(OCc2ccccc2F)CC1)(Cn1cncn1)c1ccc(F)cc1F (stereo not drawn)
MIC80 [1]: 0.56 µM (≈ 0.25 µg/mL)
Ratio [2]: 82
MIC80 [3]: 0.01 µM (≈ 0.00446 µg/mL)
MIC80 [4]: 0.03 µM (≈ 0.0134 µg/mL)
MIC80 [5]: 2.24 µM (≈ 1 µg/mL)
MIC80 [6]: 0.14 µM (≈ 0.0625 µg/mL)
MIC80 [7]: 0.03 µM (≈ 0.0134 µg/mL)
MIC80 [8]: 0.03 µM (≈ 0.0134 µg/mL)
Ratio [9]: 82
Ratio [10]: 82

OC(CN1CCC(OCc2ccccc2Cl)CC1)(Cn1cncn1)c1ccc(F)cc1F (stereo not drawn)
MIC80 [1]: 0.54 µM (≈ 0.25 µg/mL)
MIC80 [3]: 0.03 µM (≈ 0.0139 µg/mL)
MIC80 [4]: 0.03 µM (≈ 0.0139 µg/mL)
MIC80 [5]: 2.16 µM (≈ 1 µg/mL)
MIC80 [6]: 0.14 µM (≈ 0.0648 µg/mL)
MIC80 [7]: 0.03 µM (≈ 0.0139 µg/mL)
MIC80 [8]: 0.14 µM (≈ 0.0648 µg/mL)

CN(CCCCOc1ccccc1)CC(O)(Cn1cncn1)c1ccc(F)cc1F (stereo not drawn)
MIC80 [1]: 0.6 µM (≈ 0.25 µg/mL)
MIC80 [3]: 0.04 µM (≈ 0.0167 µg/mL)
MIC80 [4]: 0.15 µM (≈ 0.0625 µg/mL)
MIC80 [5]: > 154 µM
MIC80 [6]: 0.6 µM (≈ 0.25 µg/mL)
MIC80 [7]: 0.15 µM (≈ 0.0625 µg/mL)
MIC80 [8]: 0.04 µM (≈ 0.0167 µg/mL)

OC(CN1CCC(OCc2cccc(Cl)c2)CC1)(Cn1cncn1)c1ccc(F)cc1F (stereo not drawn)
MIC80 [1]: 0.54 µM (≈ 0.25 µg/mL)
MIC80 [3]: 0.14 µM (≈ 0.0648 µg/mL)
MIC80 [4]: 0.03 µM (≈ 0.0139 µg/mL)
MIC80 [5]: 2.16 µM (≈ 1 µg/mL)
MIC80 [6]: 0.03 µM (≈ 0.0139 µg/mL)
MIC80 [7]: 0.03 µM (≈ 0.0139 µg/mL)
MIC80 [8]: 0.14 µM (≈ 0.0648 µg/mL)

OC(CN1CCC(OCc2ccc(Cl)c(Cl)c2)CC1)(Cn1cncn1)c1ccc(F)cc1F (stereo not drawn)
MIC80 [1]: 0.5 µM (≈ 0.249 µg/mL)
MIC80 [3]: 0.13 µM (≈ 0.0647 µg/mL)
MIC80 [4]: 0.03 µM (≈ 0.0149 µg/mL)
MIC80 [5]: 2.01 µM (≈ 1 µg/mL)
MIC80 [6]: 0.03 µM (≈ 0.0149 µg/mL)
MIC80 [7]: 0.03 µM (≈ 0.0149 µg/mL)
MIC80 [8]: 0.13 µM (≈ 0.0647 µg/mL)

CN(CC(O)(Cn1cncn1)c1ccc(F)cc1F)C1CCN(Cc2ccccc2)CC1 (stereo not drawn)
MIC80 [1]: 2.26 µM (≈ 0.998 µg/mL)
MIC80 [3]: 0.57 µM (≈ 0.252 µg/mL)
MIC80 [4]: 2.26 µM (≈ 0.998 µg/mL)
MIC80 [5]: 145 µM (≈ 64 µg/mL)
MIC80 [6]: 2.26 µM (≈ 0.998 µg/mL)
MIC80 [7]: 0.57 µM (≈ 0.252 µg/mL)
MIC80 [8]: 2.26 µM (≈ 0.998 µg/mL)

OC(CN1CCC(OCc2ccc(Cl)cc2Cl)CC1)(Cn1cncn1)c1ccc(F)cc1F (stereo not drawn)
MIC80 [1]: 0.5 µM (≈ 0.249 µg/mL)
MIC80 [3]: 0.13 µM (≈ 0.0647 µg/mL)
MIC80 [4]: 0.03 µM (≈ 0.0149 µg/mL)
MIC80 [5]: 2.01 µM (≈ 1 µg/mL)
MIC80 [6]: 0.13 µM (≈ 0.0647 µg/mL)
MIC80 [7]: 0.03 µM (≈ 0.0149 µg/mL)
MIC80 [8]: 0.13 µM (≈ 0.0647 µg/mL)

N#Cc1ccc(COC2CCN(CC(O)(Cn3cncn3)c3ccc(F)cc3F)CC2)cc1 (stereo not drawn)
MIC80 [1]: 0.55 µM (≈ 0.249 µg/mL)
MIC80 [3]: 0.03 µM (≈ 0.0136 µg/mL)
MIC80 [4]: 0.03 µM (≈ 0.0136 µg/mL)
MIC80 [5]: 0.55 µM (≈ 0.249 µg/mL)
MIC80 [6]: 0.03 µM (≈ 0.0136 µg/mL)
MIC80 [7]: 0.01 µM (≈ 0.00453 µg/mL)
MIC80 [8]: 0.14 µM (≈ 0.0635 µg/mL)

OC(CN1CCC(OCc2cccc(Br)c2)CC1)(Cn1cncn1)c1ccc(F)cc1F (stereo not drawn)
MIC80 [1]: 0.49 µM (≈ 0.249 µg/mL)
Ratio [2]: 82
MIC80 [3]: 0.01 µM (≈ 0.00507 µg/mL)
MIC80 [4]: 0.12 µM (≈ 0.0609 µg/mL)
MIC80 [5]: 1.97 µM (≈ 1 µg/mL)
MIC80 [6]: 0.12 µM (≈ 0.0609 µg/mL)
MIC80 [7]: 0.12 µM (≈ 0.0609 µg/mL)
MIC80 [8]: 0.12 µM (≈ 0.0609 µg/mL)
Ratio [9]: 82
Ratio [10]: 82

OC(Cn1cncn1)(Cn1cncn1)c1ccc(F)cc1F [FLUCONAZOLE]
MIC80 [1]: 3.26 µM (≈ 0.998 µg/mL)
MIC80 [3]: 0.82 µM (≈ 0.251 µg/mL)
MIC80 [4]: 0.2 µM (≈ 0.0613 µg/mL)
MIC80 [5]: > 209 µM
MIC80 [6]: 3.26 µM (≈ 0.998 µg/mL)
MIC80 [7]: 0.82 µM (≈ 0.251 µg/mL)
MIC80 [8]: 3.26 µM (≈ 0.998 µg/mL)

OC(CN1CCC(OCc2ccccc2)CC1)(Cn1cncn1)c1ccc(F)cc1F (stereo not drawn)
MIC80 [1]: 0.15 µM (≈ 0.0643 µg/mL)
Ratio [2]: 82
MIC80 [3]: 0.01 µM (≈ 0.00428 µg/mL)
MIC80 [4]: 0.04 µM (≈ 0.0171 µg/mL)
MIC80 [5]: 2.33 µM (≈ 0.998 µg/mL)
MIC80 [6]: 0.15 µM (≈ 0.0643 µg/mL)
MIC80 [7]: 0.04 µM (≈ 0.0171 µg/mL)
MIC80 [8]: 0.04 µM (≈ 0.0171 µg/mL)
Ratio [9]: 82
Ratio [10]: 82

OC(CN1CCC(OCc2ccc(F)cc2)CC1)(Cn1cncn1)c1ccc(F)cc1F (stereo not drawn)
MIC80 [1]: 0.56 µM (≈ 0.25 µg/mL)
MIC80 [3]: 0.14 µM (≈ 0.0625 µg/mL)
MIC80 [4]: 0.03 µM (≈ 0.0134 µg/mL)
MIC80 [5]: 2.24 µM (≈ 1 µg/mL)
MIC80 [6]: 0.03 µM (≈ 0.0134 µg/mL)
MIC80 [7]: 0.03 µM (≈ 0.0134 µg/mL)
MIC80 [8]: 0.03 µM (≈ 0.0134 µg/mL)
